Patent US20230312482A1, “SOS1 INHIBITORS” (Mirati Therapeutics, Inc., priority 2020, published 2023)
One block for each compound: values may come before it.

Tests used:
[1] = molecular target: T1, recombinant human SOS1 polypeptide (amino acids 560-1049) (Homo sapiens, UniProt Q07889); test: HTRF displacement assay, binding to SOS1; details: HTRF displacement of Cy5 labelled tracer, 1-hour incubation, Morrison equation
T1 construct: corresponding to amino acids 560-1049, expressed in E. Coli; His (N); TEV site (N); made in house; host or cells: E. coli
T1 sequence (Q07889 560-1049): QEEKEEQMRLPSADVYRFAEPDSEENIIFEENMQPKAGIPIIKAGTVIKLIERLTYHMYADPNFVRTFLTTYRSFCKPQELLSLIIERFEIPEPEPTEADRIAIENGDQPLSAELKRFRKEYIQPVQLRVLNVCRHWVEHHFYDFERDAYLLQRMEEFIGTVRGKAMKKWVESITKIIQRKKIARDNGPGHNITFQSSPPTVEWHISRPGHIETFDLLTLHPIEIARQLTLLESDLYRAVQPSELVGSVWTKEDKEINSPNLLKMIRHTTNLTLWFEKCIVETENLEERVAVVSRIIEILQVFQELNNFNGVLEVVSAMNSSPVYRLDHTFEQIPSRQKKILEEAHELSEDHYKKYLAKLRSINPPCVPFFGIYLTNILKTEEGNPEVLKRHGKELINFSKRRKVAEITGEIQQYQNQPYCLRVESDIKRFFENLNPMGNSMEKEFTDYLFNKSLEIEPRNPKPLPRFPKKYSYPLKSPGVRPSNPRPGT
Experimental: The ability of a compound of Formula (I) to bind to SOS1 was measured using a HTRF displacement assay. […] The HTRF ratio was calculated using the formula: [emission ⅟emission 2]*10000.
Background signals were calculated from well with a 10 µM inhibitor, known to inhibit 100% at that concentration. The background subtracted signals were converted to % binding relative to DMSO controls. Data were analyzed using XLFIT software (IDBS) using a Morrison equation for competitive binding and Ki’s were generated for compound of Formula (I).

[2] = test system: pERK in MKN1 cells or H358; test: pERK inhibition in MKN1 or H358 cells (In-Cell Western); format: cell-based; details: GAPDH normalized, 1 hour with compound, MKN1 or H358 cells (not specified which)
Experimental: This Example illustrates that exemplary compounds of the present invention prevent KRas-mediated GTP nucleotide exchange mediated by SOS1 to inhibit KRas activity thereby inhibiting the generation of the downstream effector pERK.
(§1) MKN1 cells (15,000/w) or H358 (30,000/w) were seeded in a black clear flat bottom 96-well cell culture plate (Corning, #3904) and incubated at 37° C. overnight. Assay day 1, cells were dosed with compounds of Formula (I) with a […] starting concentration and serially diluted 3x for a total of 9 concentrations. The cells were incubated for 1 hour with the compounds solubilized in DMSO at 37° C. Cells were immediately fixed by adding 50 µL of 4% formaldehyde to all wells in a fume hood and the plates were incubated for 20 minutes at room temperature. The formaldehyde was discarded from the plates and 150 µL of ice-cold methanol was added to permeabilize the cells for 10 minutes at -20° C. The methanol was discarded from each of the plates and any liquid remaining in the plate by tapping the plate against paper towels. Cells were then blocked with 150 µL of Odyssey blocking buffer (LI-COR Biosciences #927-50010) using 0.05% Tween for 1 hour at room temperature on a shaker. The blocking buffer was discarded and 50 µL of primary antibodies pERK (cell signaling Technology #9101L; Rabbit, 1:500) and GapDH (Millipore #MAB34; Mouse, 1:5000) diluted in Odyssey blocking buffer was added. The plates were incubated overnight at 4° C. on a shaker.
On Assay day 2, the primary antibody solution was removed. Each plate was washed 3x times with 150 µL of 1x PBST (PBS + 0.1 % Tween 20) and incubated with 50 µL of secondary antibodies: Anti-Rabbit (LI-COR Biosciences #926-32211) and Anti-Mouse (LI-COR Biosciences #68070) at 1:800 dilution in Odyssey blocking buffer with Tween at room temperature on a shaker for 2 hours (protected from light). The secondary antibody solution as removed and each plate was washed with PBST 3x times. Any liquid remaining was discarded and the plate was imaged using the Licor Odyssey machine according to the manufacturer’s instruction, using a set focus length at 3 mm and both 800 nm and 700 nm filters. The GAPDH normalized scan values for each well were divided by the average of vehicle wells to get the % of pERK inhibition. The IC50 values were then calculated with the Graph pad Prism software.

[3] = test system: pERK in NCI-H1435 cells; test: pERK inhibition in NF-1 mutant cell line NCI-H1435; format: cell-based; details: NCI-H1435 cells (NF-1 mutation), 1 hour with compound
Description: This Example illustrates that exemplary compounds of the present invention prevent increased KRas-mediated GTP nucleotide exchange mediated by SOS1 in NF-1 mutant cell lines to inhibit KRas activity thereby inhibiting the generation of the downstream effector pERK.
as §1, with “A cell line harboring activating mutation in NF-1 gene, NCI-H1435 (ATCC CRL-5870) and a cell line harboring activating mutation in NF-2 gene, NCI-H2052 (ATCC CRL-5915) were employed in these studies. NCI-H1435 and NCI-2052” for “MKN1”, “(15,000/w)” for “(15,000/w) or H358 (30,000/w)”
On Assay day 2, the primary antibody solution was removed. […] The IC50 values were then calculated with the Graph pad Prism software.

[4] = test system: pERK in NCI-H2052 cells; test: pERK inhibition in NF-2 mutant cell line NCI-H2052; format: cell-based; details: Homo sapiens, NCI-H2052 cells (NF-2 mutation), 1 hour with compound

Ki [1]: 60 nM | IC50 [3]: 1090 nM | IC50 [4]: > 10000 nM
SMILES: Cc1c([C@@H](C)Nc2n[nH]c(=O)c3ccc(N4CCOCC4)cc23)cccc1C(F)(F)F [Example 1-1]
IC50 [2]: 1320 nM

Ki [1]: 14 nM | IC50 [3]: 522 nM | IC50 [4]: 997 nM
SMILES: CNCc1ccccc1-c1csc([C@@H](C)Nc2nn(C)c(=O)c3ccc(N4CCOCC4)cc23)c1 [Example 1-3, (R)methyl-4-((1-(4-(2-((methylamino)methyl)phenyl)thiophenyl)ethyl)amino)-6-morpholinophthalazin-1 (2H)-one]
IC50 [2]: 265 nM

Ki [1]: 3000 nM
SMILES: Cc1c([C@@H](C)Nc2nn(C)c(=O)c3ccc(N4CCOCC4)cc23)cccc1C(F)(F)F [Example 1-4]

More lines, now with the values behind:

SMILES: CNCc1ccccc1-c1csc([C@@H](C)Nc2n[nH]c(=O)c3ccc(N4CCOCC4)cc23)c1 [Example 1-2]
Ki [1]: 10 nM | IC50 [2]: 202 nM | IC50 [3]: 311 nM | IC50 [4]: 752 nM

SMILES: Cc1c([C@@H](C)Nc2nn(C)c(=O)c3ccc(N4CCNCC4)cc23)cccc1C(F)(F)F [Example 1-5]
IC50 [2]: 881 nM

SMILES: Cc1c([C@@H](C)Nc2n[nH]c(=O)c3ccc(N4CCNCC4)cc23)cccc1C(F)(F)F [Example 1-6]
IC50 [2]: 114 nM
